# Assay results reported in article PMC6547681 (Nature Communications, 2019).
# Test system: BCL-2 G101V
# Test: Steady-state competition SPR against immobilised BIMBH3 peptide, BCL-2 G101V
# Format: binding, human
# Procedure: SPR experiments were performed as previously described. […] The lowest concentrations used in direct binding experiments were 1 nM for BIAcore 4000 and 0.1 nM for BIAcore S200 instruments, concentrations below these were below the sensitivity thresholds for the instruments. […] Direct binding experiments were fitted to a 1:1 binding site kinetic model, fitting on and off rates, in BIAevaluation software. For competition experiments steady-state responses were determined in BIAevaluation software according to the software defaults in affinity evaluation mode averaging responses for 5 sec. […] All affinity measurements were performed in at least two independent experiments using independent protein preparations.
smiles,measurement,setting,value
O=C(c1cc(-c2cc3c(cc2C(=O)N2Cc4ccccc4C[C@H]2CN2CCOCC2)OCO3)n2c1CCCC2)N(c1ccccc1)c1ccc(O)cc1 [S55746],S55746 binding weaker than venetoclax,BCL-2 G101V,> 10 fold
same,Raw data values in Figure 3g (SPR response),"S55746 concentration 20, BCL-2 concentration 10 nM, independent experiment 1",59.4981
same,Raw data values in Figure 3g (SPR response),"S55746 concentration 20, BCL-2 concentration 10 nM, independent experiment 2",173.158
same,Raw data values in Figure 3g (SPR response),"S55746 concentration 20, BCL-2 concentration 10 nM, independent experiment 3",34.4335
same,Raw data values in Figure 3g (SPR response),"S55746 concentration 20, BCL-2 concentration 20 nM, independent experiment 1",71.3826
same,Raw data values in Figure 3g (SPR response),"S55746 concentration 20, BCL-2 concentration 20 nM, independent experiment 2",232.183
same,Raw data values in Figure 3g (SPR response),"S55746 concentration 20, BCL-2 concentration 20 nM, independent experiment 3",41.9552
same,Raw data values in Figure 3g (SPR response),"S55746 concentration 20, BCL-2 concentration 30 nM, independent experiment 1",77.2987
same,Raw data values in Figure 3g (SPR response),"S55746 concentration 20, BCL-2 concentration 30 nM, independent experiment 2",262.629
same,Raw data values in Figure 3g (SPR response),"S55746 concentration 20, BCL-2 concentration 30 nM, independent experiment 3",45.3747
same,Raw data values in Figure 3g (SPR response),"S55746 concentration 20, BCL-2 concentration 40 nM, independent experiment 1",80.4228
same,Raw data values in Figure 3g (SPR response),"S55746 concentration 20, BCL-2 concentration 40 nM, independent experiment 2",280.533
same,Raw data values in Figure 3g (SPR response),"S55746 concentration 20, BCL-2 concentration 40 nM, independent experiment 3",47.3992
same,Raw data values in Figure 3g (SPR response),"S55746 concentration 20, BCL-2 concentration 50 nM, independent experiment 1",83.2844
same,Raw data values in Figure 3g (SPR response),"S55746 concentration 20, BCL-2 concentration 50 nM, independent experiment 2",293.102
same,Raw data values in Figure 3g (SPR response),"S55746 concentration 20, BCL-2 concentration 50 nM, independent experiment 3",48.7371
same,Raw data values in Figure 3g (SPR response),"S55746 concentration 20, BCL-2 concentration 60 nM, independent experiment 1",85.1797
same,Raw data values in Figure 3g (SPR response),"S55746 concentration 20, BCL-2 concentration 60 nM, independent experiment 2",302.908
same,Raw data values in Figure 3g (SPR response),"S55746 concentration 20, BCL-2 concentration 60 nM, independent experiment 3",49.7741
same,Raw data values in Figure 3g (SPR response),"S55746 concentration 20, BCL-2 concentration 70 nM, independent experiment 1",86.4751
same,Raw data values in Figure 3g (SPR response),"S55746 concentration 20, BCL-2 concentration 70 nM, independent experiment 2",309.956
same,Raw data values in Figure 3g (SPR response),"S55746 concentration 20, BCL-2 concentration 70 nM, independent experiment 3",50.4376
same,Raw data values in Figure 3g (SPR response),"S55746 concentration 20, BCL-2 concentration 80 nM, independent experiment 1",87.9511
same,Raw data values in Figure 3g (SPR response),"S55746 concentration 20, BCL-2 concentration 80 nM, independent experiment 2",316.608
same,Raw data values in Figure 3g (SPR response),"S55746 concentration 20, BCL-2 concentration 80 nM, independent experiment 3",51.0592
same,Raw data values in Figure 3g (SPR response),"S55746 concentration 20, BCL-2 concentration 100 nM, independent experiment 1",89.5861
same,Raw data values in Figure 3g (SPR response),"S55746 concentration 20, BCL-2 concentration 100 nM, independent experiment 2",324.599
same,Raw data values in Figure 3g (SPR response),"S55746 concentration 20, BCL-2 concentration 100 nM, independent experiment 3",51.7173
same,Raw data values in Figure 3g (SPR response),"S55746 concentration 20, BCL-2 concentration 150 nM, independent experiment 1",91.8559
same,Raw data values in Figure 3g (SPR response),"S55746 concentration 20, BCL-2 concentration 150 nM, independent experiment 2",337.351
same,Raw data values in Figure 3g (SPR response),"S55746 concentration 20, BCL-2 concentration 150 nM, independent experiment 3",52.8108
same,Raw data values in Figure 3g (SPR response),"S55746 concentration 20, BCL-2 concentration 200 nM, independent experiment 1",93.1192
same,Raw data values in Figure 3g (SPR response),"S55746 concentration 20, BCL-2 concentration 250 nM, independent experiment 2",349.701
same,Raw data values in Figure 3g (SPR response),"S55746 concentration 20, BCL-2 concentration 250 nM, independent experiment 3",53.5404
same,Raw data values in Figure 3g (SPR response),"S55746 concentration 40, BCL-2 concentration 10 nM, independent experiment 1",53.0775
same,Raw data values in Figure 3g (SPR response),"S55746 concentration 40, BCL-2 concentration 10 nM, independent experiment 2",142.314
same,Raw data values in Figure 3g (SPR response),"S55746 concentration 40, BCL-2 concentration 10 nM, independent experiment 3",29.9924
same,Raw data values in Figure 3g (SPR response),"S55746 concentration 40, BCL-2 concentration 20 nM, independent experiment 1",66.1797
same,Raw data values in Figure 3g (SPR response),"S55746 concentration 40, BCL-2 concentration 20 nM, independent experiment 2",204.771
same,Raw data values in Figure 3g (SPR response),"S55746 concentration 40, BCL-2 concentration 20 nM, independent experiment 3",38.5613
same,Raw data values in Figure 3g (SPR response),"S55746 concentration 40, BCL-2 concentration 30 nM, independent experiment 1",73.4709
same,Raw data values in Figure 3g (SPR response),"S55746 concentration 40, BCL-2 concentration 30 nM, independent experiment 2",240.258
same,Raw data values in Figure 3g (SPR response),"S55746 concentration 40, BCL-2 concentration 30 nM, independent experiment 3",42.9042
same,Raw data values in Figure 3g (SPR response),"S55746 concentration 40, BCL-2 concentration 40 nM, independent experiment 1",77.7102
same,Raw data values in Figure 3g (SPR response),"S55746 concentration 40, BCL-2 concentration 40 nM, independent experiment 2",263.387
same,Raw data values in Figure 3g (SPR response),"S55746 concentration 40, BCL-2 concentration 40 nM, independent experiment 3",45.6376
same,Raw data values in Figure 3g (SPR response),"S55746 concentration 40, BCL-2 concentration 50 nM, independent experiment 1",81.3114
same,Raw data values in Figure 3g (SPR response),"S55746 concentration 40, BCL-2 concentration 50 nM, independent experiment 2",278.636
same,Raw data values in Figure 3g (SPR response),"S55746 concentration 40, BCL-2 concentration 50 nM, independent experiment 3",47.2724
same,Raw data values in Figure 3g (SPR response),"S55746 concentration 40, BCL-2 concentration 60 nM, independent experiment 1",83.6106
same,Raw data values in Figure 3g (SPR response),"S55746 concentration 40, BCL-2 concentration 60 nM, independent experiment 2",291.594
